Data published in patent US12268674B2, “Mi-2β inhibitor as an immunotherapy agent” (BioVentures, LLC, priority 2021, dated 2025).

Tests used:
Assay in all cases: ATPase profile (ATP acyl phosphate probe)
Format in all cases: binding
[1] = target: T1, PDE12 (Homo sapiens, UniProt Q6L8Q7); settings: PDE12, SEQ ID NO: 155, ATP BS
T1 construct: to get the native cell lysate; endogenous in cells; host or cells: A375 cell lysate

[2] = target: T2, ACACB (Homo sapiens, UniProt O00763); settings: SEQ ID NO: 21, ATP BS
T2 construct: to get the native cell lysate; host or cells: A375 cell lysate

[3] = target: T3, HYOU1 (Homo sapiens, UniProt Q9Y4L1)
T3 construct: to get the native cell lysate; endogenous in cells; host or cells: A375
T3 sequence (Q9Y4L1 33-999): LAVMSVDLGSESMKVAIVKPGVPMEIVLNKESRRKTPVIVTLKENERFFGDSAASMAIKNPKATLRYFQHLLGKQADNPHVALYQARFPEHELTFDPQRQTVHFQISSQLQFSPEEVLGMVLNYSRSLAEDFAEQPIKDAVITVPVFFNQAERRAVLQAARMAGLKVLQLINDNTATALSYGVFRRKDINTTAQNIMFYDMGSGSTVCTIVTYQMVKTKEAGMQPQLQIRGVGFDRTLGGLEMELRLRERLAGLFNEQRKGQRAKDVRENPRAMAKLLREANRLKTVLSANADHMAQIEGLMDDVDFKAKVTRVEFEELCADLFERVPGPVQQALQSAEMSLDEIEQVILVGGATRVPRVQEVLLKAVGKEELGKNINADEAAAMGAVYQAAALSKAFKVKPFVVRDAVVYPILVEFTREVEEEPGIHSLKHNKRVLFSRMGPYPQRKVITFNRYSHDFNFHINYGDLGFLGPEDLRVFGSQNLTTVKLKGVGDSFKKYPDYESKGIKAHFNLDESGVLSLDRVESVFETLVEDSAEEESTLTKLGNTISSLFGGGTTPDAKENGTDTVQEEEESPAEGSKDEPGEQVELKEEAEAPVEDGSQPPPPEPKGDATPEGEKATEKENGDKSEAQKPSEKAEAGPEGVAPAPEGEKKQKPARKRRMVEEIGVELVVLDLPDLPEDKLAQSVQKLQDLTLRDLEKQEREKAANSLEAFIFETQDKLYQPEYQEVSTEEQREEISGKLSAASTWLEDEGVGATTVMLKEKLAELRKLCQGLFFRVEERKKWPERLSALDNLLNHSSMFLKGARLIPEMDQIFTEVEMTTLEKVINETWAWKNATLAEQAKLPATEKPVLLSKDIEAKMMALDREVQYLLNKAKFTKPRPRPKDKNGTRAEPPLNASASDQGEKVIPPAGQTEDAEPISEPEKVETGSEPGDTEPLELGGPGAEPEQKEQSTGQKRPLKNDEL

[4] = target: T4, FDPS (Homo sapiens, UniProt P14324); settings: SEQ ID NO: 78, ATP BS
T4 construct: endogenous in cells; host or cells: A375 cell lysate
T4 sequence (P14324 whole entry): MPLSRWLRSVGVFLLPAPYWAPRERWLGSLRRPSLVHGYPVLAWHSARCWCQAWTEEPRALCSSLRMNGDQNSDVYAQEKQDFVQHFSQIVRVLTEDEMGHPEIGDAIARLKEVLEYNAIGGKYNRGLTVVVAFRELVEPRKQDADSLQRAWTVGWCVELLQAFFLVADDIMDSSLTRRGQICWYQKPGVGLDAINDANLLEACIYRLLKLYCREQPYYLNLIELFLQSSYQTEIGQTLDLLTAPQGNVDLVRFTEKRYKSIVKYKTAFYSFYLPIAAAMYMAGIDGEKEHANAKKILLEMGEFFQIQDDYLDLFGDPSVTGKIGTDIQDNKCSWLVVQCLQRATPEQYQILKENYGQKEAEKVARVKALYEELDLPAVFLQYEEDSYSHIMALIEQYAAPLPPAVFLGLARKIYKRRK

[5] = target: T5, TTL (Homo sapiens, UniProt Q8NG68)
T5 construct: to get the native cell lysate; endogenous in cells; host or cells: A375 cell lysate
T5 sequence (Q8NG68 whole entry): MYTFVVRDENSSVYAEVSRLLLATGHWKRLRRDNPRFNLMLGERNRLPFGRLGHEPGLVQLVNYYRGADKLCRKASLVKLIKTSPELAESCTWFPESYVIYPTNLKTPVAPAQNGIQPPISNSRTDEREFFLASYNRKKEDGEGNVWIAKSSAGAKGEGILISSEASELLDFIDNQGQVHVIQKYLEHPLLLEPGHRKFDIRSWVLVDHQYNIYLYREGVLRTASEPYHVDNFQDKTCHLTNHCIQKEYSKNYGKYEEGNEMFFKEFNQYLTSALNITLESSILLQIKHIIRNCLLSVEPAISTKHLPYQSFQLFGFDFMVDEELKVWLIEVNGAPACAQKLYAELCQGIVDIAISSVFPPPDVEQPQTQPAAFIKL

[6] = target: T6, PPCS (Homo sapiens, UniProt Q9HAB8)
T6 construct: to get the native cell lysate; endogenous in cells; host or cells: A375 cell lysate
T6 sequence (Q9HAB8 whole entry): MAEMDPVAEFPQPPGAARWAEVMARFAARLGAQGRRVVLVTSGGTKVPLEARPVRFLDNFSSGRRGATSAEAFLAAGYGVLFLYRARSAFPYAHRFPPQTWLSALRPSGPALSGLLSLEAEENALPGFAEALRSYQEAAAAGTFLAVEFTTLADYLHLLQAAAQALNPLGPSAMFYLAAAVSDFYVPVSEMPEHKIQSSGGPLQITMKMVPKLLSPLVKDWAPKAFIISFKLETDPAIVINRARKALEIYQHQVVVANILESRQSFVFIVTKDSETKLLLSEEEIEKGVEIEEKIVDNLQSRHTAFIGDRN

[7] = target: T7, MCCC1 (Homo sapiens, UniProt Q96RQ3)
T7 construct: to get the native cell lysate; endogenous in cells; host or cells: A375

[8] = target: T8, ABCF2 (Homo sapiens, UniProt Q9UG63)
T8 construct: to get the native cell lysate; host or cells: A375 cell lysate

[9] = target: T9, PCCA (Homo sapiens, UniProt P05165)
T9 construct: to get the native cell lysate; endogenous in cells; host or cells: A375

[10] = target: T10, TK2 (Homo sapiens, UniProt O00142); settings: TK2, SEQ ID NO: 201, ATP BS
T10 construct: to get the native cell lysate; endogenous in cells; host or cells: A375 cell lysate

[11] = target: T11, UBA3 (Homo sapiens, UniProt Q8TBC4); settings: UBA3, SEQ ID NO: 220, ATP BS
T11 construct: to get the native cell lysate; endogenous in cells; host or cells: A375 cell lysate

[12] = target: T12, SNRNP200 (Homo sapiens, UniProt O75643); settings: SNRNP200, SEQ ID NO: 196, ATP BS
T12 construct: to get the native cell lysate; endogenous in cells; host or cells: A375 cell lysate

[13] = target: T13, ABCD4 (Homo sapiens, UniProt O14678); settings: ABCD4, SEQ ID NO: 14, ATP BS
T13 construct: to get the native cell lysate; host or cells: A375 cell lysate

[14] = tested on: PRPS1L1, PRPS2; settings: PRPS1L1, PRPS2, SEQ ID NO: 172, ATP BS
[15] = target: T14, NADK2 (Homo sapiens, UniProt Q4G0N4); settings: NADK2, SEQ ID NO: 129, ATP BS
T14 construct: to get the native cell lysate; endogenous in cells; host or cells: A375

[16] = target: T15, GATB (Homo sapiens, UniProt O75879)
T15 construct: endogenous in cells; host or cells: A375 cell lysate
T15 sequence (O75879 31-557): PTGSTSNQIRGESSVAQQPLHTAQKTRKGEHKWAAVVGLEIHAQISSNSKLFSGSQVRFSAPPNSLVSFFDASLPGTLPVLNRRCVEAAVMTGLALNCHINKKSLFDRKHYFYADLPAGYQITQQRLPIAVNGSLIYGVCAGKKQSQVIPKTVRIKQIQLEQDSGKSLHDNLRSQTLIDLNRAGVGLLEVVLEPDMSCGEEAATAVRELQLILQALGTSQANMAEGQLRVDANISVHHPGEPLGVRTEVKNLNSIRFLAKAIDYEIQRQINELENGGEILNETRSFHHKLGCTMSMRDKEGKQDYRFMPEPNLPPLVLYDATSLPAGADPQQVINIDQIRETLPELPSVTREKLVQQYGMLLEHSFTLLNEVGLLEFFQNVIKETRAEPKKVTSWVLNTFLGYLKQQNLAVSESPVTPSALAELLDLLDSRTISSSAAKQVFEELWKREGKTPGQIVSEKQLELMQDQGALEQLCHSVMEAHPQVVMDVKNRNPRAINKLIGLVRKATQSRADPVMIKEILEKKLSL
T15 sequence (Q9H0R6 whole entry partner): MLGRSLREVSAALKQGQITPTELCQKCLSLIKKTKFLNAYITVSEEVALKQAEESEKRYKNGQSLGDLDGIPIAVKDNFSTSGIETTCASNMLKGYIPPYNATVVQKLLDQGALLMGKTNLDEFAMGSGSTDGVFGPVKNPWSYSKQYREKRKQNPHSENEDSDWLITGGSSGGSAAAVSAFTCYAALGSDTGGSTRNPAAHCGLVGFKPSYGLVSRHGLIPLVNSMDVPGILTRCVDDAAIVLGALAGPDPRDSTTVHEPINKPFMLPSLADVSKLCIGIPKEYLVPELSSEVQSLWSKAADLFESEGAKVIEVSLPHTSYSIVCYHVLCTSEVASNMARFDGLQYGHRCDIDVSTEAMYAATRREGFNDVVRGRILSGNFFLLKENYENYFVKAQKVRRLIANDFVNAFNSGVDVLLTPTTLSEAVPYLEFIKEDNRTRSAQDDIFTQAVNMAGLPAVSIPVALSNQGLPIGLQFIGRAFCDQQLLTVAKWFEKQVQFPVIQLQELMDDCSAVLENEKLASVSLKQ
T15 sequence (O43716 58-136 partner): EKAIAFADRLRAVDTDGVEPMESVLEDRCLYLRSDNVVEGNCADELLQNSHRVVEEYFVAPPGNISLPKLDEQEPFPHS

[17] = target: T16, SMC3 (Homo sapiens, UniProt Q9UQE7); settings: SMC3, SEQ ID NO: 194, ATP BS
T16 construct: to get the native cell lysate; endogenous in cells; host or cells: A375 cell lysate

[18] = target: T17, COASY (Homo sapiens, UniProt Q13057)
T17 construct: endogenous in cells; host or cells: A375 cell lysate
T17 sequence (Q13057 whole entry): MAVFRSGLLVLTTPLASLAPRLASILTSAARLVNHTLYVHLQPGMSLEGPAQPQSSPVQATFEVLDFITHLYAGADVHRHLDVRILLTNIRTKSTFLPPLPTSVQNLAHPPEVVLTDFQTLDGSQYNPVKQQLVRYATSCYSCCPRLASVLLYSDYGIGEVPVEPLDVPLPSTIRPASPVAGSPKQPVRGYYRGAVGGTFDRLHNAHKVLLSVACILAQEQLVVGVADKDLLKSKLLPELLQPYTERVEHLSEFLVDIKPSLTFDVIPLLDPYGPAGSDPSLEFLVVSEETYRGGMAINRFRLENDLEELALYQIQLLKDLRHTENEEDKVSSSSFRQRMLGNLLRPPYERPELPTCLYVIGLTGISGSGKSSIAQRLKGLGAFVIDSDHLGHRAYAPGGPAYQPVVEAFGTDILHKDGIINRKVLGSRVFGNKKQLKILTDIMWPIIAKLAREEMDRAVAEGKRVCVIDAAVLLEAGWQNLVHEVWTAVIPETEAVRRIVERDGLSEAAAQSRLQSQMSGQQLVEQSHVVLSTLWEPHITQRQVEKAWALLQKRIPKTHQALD

[19] = target: T18, TCP1 (Homo sapiens, UniProt P17987); settings: TCP1, SEQ ID NO: 200, ATP BS
T18 construct: to get the native cell lysate; endogenous in cells; host or cells: A375 cell lysate

[20] = target: T19, PC (Homo sapiens, UniProt P11498); settings: SEQ ID NO: 152, ATP BS
T19 construct: to get the native cell lysate; endogenous in cells; host or cells: A375

[21] = target: T20, HSPA5 (Homo sapiens, UniProt P11021)
T20 construct: to get the native cell lysate; endogenous in cells; host or cells: A375

[22] = target: T21, CLPB (Homo sapiens, UniProt Q9H078); settings: SEQ ID NO: 58, ATP BS
T21 construct: endogenous in cells; host or cells: A375 cell lysate

[23] = target: T22, PAICS (Homo sapiens, UniProt P22234); settings: SEQ ID NO: 151, ATP BS
T22 construct: to get the native cell lysate; endogenous in cells; host or cells: A375

[24] = target: PRKAG1 (Homo sapiens, UniProt P54619)
Chain of PRKAG1 (P54619 whole entry): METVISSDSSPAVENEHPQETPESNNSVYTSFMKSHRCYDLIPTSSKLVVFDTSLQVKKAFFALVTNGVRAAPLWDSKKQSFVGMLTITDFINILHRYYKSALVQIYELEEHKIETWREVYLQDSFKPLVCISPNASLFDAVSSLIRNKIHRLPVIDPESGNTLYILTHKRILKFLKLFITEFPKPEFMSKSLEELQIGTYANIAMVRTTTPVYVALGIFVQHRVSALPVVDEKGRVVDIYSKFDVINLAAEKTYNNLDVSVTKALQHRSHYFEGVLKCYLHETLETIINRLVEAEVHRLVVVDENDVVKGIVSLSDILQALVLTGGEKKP
Chain of PRKAG1 (Q13131 whole entry partner): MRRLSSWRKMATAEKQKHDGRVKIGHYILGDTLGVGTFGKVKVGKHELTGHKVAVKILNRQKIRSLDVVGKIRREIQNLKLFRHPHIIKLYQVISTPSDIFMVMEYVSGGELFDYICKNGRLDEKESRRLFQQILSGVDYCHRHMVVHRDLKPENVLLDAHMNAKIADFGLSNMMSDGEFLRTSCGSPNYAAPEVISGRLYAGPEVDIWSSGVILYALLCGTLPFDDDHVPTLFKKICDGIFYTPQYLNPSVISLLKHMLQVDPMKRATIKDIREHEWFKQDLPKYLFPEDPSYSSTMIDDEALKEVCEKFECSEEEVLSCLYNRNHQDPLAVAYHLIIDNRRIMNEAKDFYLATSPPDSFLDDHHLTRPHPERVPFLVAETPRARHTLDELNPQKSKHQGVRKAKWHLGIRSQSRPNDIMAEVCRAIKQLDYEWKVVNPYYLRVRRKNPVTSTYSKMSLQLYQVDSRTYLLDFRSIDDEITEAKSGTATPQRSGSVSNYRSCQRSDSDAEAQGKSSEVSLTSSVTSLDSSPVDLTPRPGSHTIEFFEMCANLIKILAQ
Chain of PRKAG1 (Q9Y478 whole entry partner): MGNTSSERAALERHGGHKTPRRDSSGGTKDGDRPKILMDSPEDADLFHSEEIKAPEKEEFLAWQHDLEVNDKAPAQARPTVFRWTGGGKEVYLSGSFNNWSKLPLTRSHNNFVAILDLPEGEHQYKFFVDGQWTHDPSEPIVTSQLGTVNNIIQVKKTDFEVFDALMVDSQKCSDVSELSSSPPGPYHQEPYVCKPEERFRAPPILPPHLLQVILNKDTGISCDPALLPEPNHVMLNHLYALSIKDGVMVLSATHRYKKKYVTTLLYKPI

[25] = target: T23, HSP60 (Homo sapiens, UniProt P10809); settings: HSP60, SEQ ID NO: 94, ATP BS
T23 construct: to get the native cell lysate; endogenous in cells; host or cells: A375

[26] = target: T24, MDN1 (Homo sapiens, UniProt Q9NU22); settings: MDN1, SEQ ID NO: 121, ATP BS
T24 construct: to get the native cell lysate; endogenous in cells; host or cells: A375

[27] = target: T25, PFAS (Homo sapiens, UniProt O15067); settings: SEQ ID NO: 157, ATP BS
T25 construct: to get the native cell lysate; endogenous in cells; host or cells: A375 cell lysate

[28] = target: T26, SPG7 (Homo sapiens, UniProt Q9UQ90); settings: SPG7, SEQ ID NO: 197, ATP BS
T26 construct: to get the native cell lysate; endogenous in cells; host or cells: A375 cell lysate

Cn1c(=O)[nH]c2ccc(-c3cccc(C(=O)NC4CCn5ccnc5C4)c3)cc21 (centres unmarked) [Z36-MP5, 3-(3-methyl-2-oxo-2,3-dihydro-1H-benzo[d]imidazol-5-yl)-N-(5,6,7,8-tetrahydroimidazo[1,2-a]pyridin-7-yl)benzamide]
Inhibition (%) by 1 μM Z36-MP5 [1]: −5.87% | Inhibition (%) by 1 μM Z36-MP5 [2]: −1.87% | Inhibition (%) by 1 μM Z36-MP5 ([3]; HYOU1, SEQ ID NO: 109, ATP BS): −13.34% | Inhibition (%) by 1 μM Z36-MP5 ([3]; HYOU1, SEQ ID NO: 110, ATP BS): −6.78% | Inhibition (%) by 1 μM Z36-MP5 [4]: 29.13% | Inhibition (%) by 1 μM Z36-MP5 ([5]; SEQ ID NO: 213, ATP BS): 10.59% | Inhibition (%) by 1 μM Z36-MP5 ([5]; SEQ ID NO: 214, ATP BS): −14.46% | Inhibition (%) by 1 μM Z36-MP5 ([6]; SEQ ID NO: 165, ATP BS): −7.44% | Inhibition (%) by 1 μM Z36-MP5 ([6]; SEQ ID NO: 166, ATP BS): −9.61% | Inhibition (%) by 1 μM Z36-MP5 ([7]; MCCC1, SEQ ID NO: 116, ATP BS): −6.46% | Inhibition (%) by 1 μM Z36-MP5 ([7]; MCCC1, SEQ ID NO: 117, ATP BS): 4.45% | Inhibition (%) by 1 μM Z36-MP5 ([8]; ABCF2, SEQ ID NO: 17, ATP BS): −7.92% | Inhibition (%) by 1 μM Z36-MP5 ([8]; ABCF2, SEQ ID NO: 18, ATP BS): 26.88% | Inhibition (%) by 1 μM Z36-MP5 ([9]; SEQ ID NO: 153, ATP BS): −5.50% | Inhibition (%) by 1 μM Z36-MP5 ([9]; SEQ ID NO: 154, ATP BS): −10.70% | Inhibition (%) by 1 μM Z36-MP5 [10]: 14.43% | Inhibition (%) by 1 μM Z36-MP5 [11]: −11.62% | Inhibition (%) by 1 μM Z36-MP5 [12]: −14.27% | Inhibition (%) by 1 μM Z36-MP5 [13]: 11.24% | Inhibition (%) by 1 μM Z36-MP5 [14]: −13.63% | Inhibition (%) by 1 μM Z36-MP5 [15]: −11.03% | Inhibition (%) by 1 μM Z36-MP5 ([16]; SEQ ID NO: 83, ATP BS): −15.35% | Inhibition (%) by 1 μM Z36-MP5 ([16]; SEQ ID NO: 84, ATP BS): −4.32% | Inhibition (%) by 1 μM Z36-MP5 [17]: −10.19% | Inhibition (%) by 1 μM Z36-MP5 ([18]; SEQ ID NO: 62, ATP BS): −3.39% | Inhibition (%) by 1 μM Z36-MP5 ([18]; SEQ ID NO: 63, ATP BS): 23.55% | Inhibition (%) by 1 μM Z36-MP5 [19]: 6.76% | Inhibition (%) by 1 μM Z36-MP5 [20]: −15.19% | Inhibition (%) by 1 μM Z36-MP5 ([21]; HSPA5, SEQ ID NO: 104, ATP BS): −16.08% | Inhibition (%) by 1 μM Z36-MP5 ([21]; HSPA5, SEQ ID NO: 105, ATP BS): −7.84% | Inhibition (%) by 1 μM Z36-MP5 [22]: −9.00% | Inhibition (%) by 1 μM Z36-MP5 [23]: 19.51% | Inhibition (%) by 1 μM Z36-MP5 ([24]; PRKAG1, SEQ ID NO: 167, ATP BS): −11.56% | Inhibition (%) by 1 μM Z36-MP5 ([24]; PRKAG1, SEQ ID NO: 168, ATP BS): −7.08% | Inhibition (%) by 1 μM Z36-MP5 [25]: 11.39% | Inhibition (%) by 1 μM Z36-MP5 [26]: 3.28% | Inhibition (%) by 1 μM Z36-MP5 [27]: −4.58% | Inhibition (%) by 1 μM Z36-MP5 [28]: 0.12%
